Data as given in ChEMBL document CHEMBL3352183, “Borrelidin B: isolation, biological activity, and implications for nitrile biosynthesis” (J Nat Prod, 2014).
Active and inactive are the calls of the source. The calls are words filed in the database; no cut-off is given here.

Key:
[1] = system: HT-29; test: Growth inhibition of human HT-29 cells; assay type: functional, cell-based
[2] = system: NCI-N87; test: Growth inhibition of human NCI-N87 cells; assay type: functional, cell-based
[3] = system: MDA-MB-361; test: Growth inhibition of human MDA-MB-361 cells; assay type: functional, cell-based
[4] = system: HeLa; test: Mitotic arrest in human HeLa cells assessed as accumulation at […] at 0.98 to 30 uM using pHH3 staining-based fluorescent assay; assay type: functional, cell-based
[5] = biological target: T1, Threonine--tRNA ligase, mitochondrial (Homo sapiens) (UniProt Q9BW92); test: Inhibition of threonyl tRNA synthetase (unknown origin) assessed as depletion of tRNAs at 50 uM by SToPs assay
T1 sequence (whole entry): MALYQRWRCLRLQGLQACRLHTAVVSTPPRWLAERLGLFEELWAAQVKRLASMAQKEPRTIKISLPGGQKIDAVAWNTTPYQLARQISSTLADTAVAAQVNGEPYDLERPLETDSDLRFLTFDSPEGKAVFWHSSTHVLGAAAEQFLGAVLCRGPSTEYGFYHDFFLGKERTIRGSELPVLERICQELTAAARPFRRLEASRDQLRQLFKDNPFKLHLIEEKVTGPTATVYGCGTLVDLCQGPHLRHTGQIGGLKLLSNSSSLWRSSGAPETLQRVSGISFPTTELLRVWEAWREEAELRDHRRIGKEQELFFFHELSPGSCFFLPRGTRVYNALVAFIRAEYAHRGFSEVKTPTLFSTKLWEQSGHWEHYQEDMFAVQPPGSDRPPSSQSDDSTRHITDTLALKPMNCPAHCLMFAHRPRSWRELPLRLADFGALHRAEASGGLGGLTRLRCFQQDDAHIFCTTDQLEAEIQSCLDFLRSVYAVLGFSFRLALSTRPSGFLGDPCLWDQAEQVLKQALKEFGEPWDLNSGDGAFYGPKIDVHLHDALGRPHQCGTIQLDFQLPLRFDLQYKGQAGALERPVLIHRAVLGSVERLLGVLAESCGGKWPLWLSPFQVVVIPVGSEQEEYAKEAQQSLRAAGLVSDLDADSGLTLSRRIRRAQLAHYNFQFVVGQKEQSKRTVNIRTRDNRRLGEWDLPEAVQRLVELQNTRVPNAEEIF

Row | Compound | IC50 [1] | IC50 [2] | IC50 [3] | Activity [4] | inhibition [5]
1 | C[C@@H]1C[C@H](C)C[C@H](C)[C@@H](O)CC(=O)O[C@H]([C@@H]2CCC[C@H]2C(=O)O)C/C=C/C=C(/C#N)[C@H](O)[C@@H](C)C1 [BORRELIDIN] | 0.92 µM | 0.05 µM | 0.42 µM |  | 
2 | CC(=O)NC/C1=C/C=C/C[C@@H]([C@@H]2CCC[C@H]2C(=O)O)OC(=O)C[C@H](O)[C@@H](C)C[C@@H](C)C[C@@H](C)C[C@H](C)[C@H]1O |  |  |  | inactive | inactive
3 | C[C@@H]1C[C@H](C)C[C@H](C)[C@@H](O)CC(=O)O[C@H]([C@@H]2CCC[C@H]2C(=O)O)C/C=C/C=C(/CN)[C@H](O)[C@@H](C)C1 | 2 µM | 1.3 µM | 2.2 µM | Dose-dependent effect | Active
